The results in this text go back to patent US20140096445A1, “METHOD OF CULTIVATION IN WATER DEFICIT CONDITIONS” (SYNGENTA PARTICIPATIONS AG, priority 2011, published 2014).

Type in all cases: in vivo
In test [1] the test system is corn. The test can be described thus: SDI split plot field study, 113 day maturity corn hybrid, Examples 13-14. The following applies: 50% irrigated deficit. How it is done: A randomized complete block (split plot) study using Subsurface Drip Irrigation (SDI) was conducted on a deep silt loam soil using a 113 day maturity corn hybrid. This trial was conducted to quantify the impact of treatments on grain yield and water productivity of corn under limited (deficit) and fully-irrigated setting. The study utilized a subsurface drip irrigation (SDI) system with a nominal dripline flowrate of 0.25 gpm/100 ft for a 5-ft dripline spacing and 24-inch emitter spacing, installed at a depth of 16-18 inches. Irrigation control panels, chemical injection pumps, and filters were housed at the irrigation well house to manage irrigation and chemigation events.
The field study was set up as a randomized complete plot design with three replications on silt loam soil.
Each plot was 8 rows wide (6.1 meters) by 15 meters long. Soil water status was monitored throughout the growing season using soil moisture sensors. Corn seed was planted with a precision planter at a depth of 2 inches and rows spaced at 30 inches. The planting population was 30,000 seeds per acre. Testing parameters, and irrigation levels were conducted according to the Kansas State University experimental procedure [see, e.g.,: (1) Lamm, F. R., A. J. Schlegel, and G. A. Clark. 2003. Development of a Best Management Practice for Nitrogen Fertigation of Corn Using SDI. Appl. Engr in Agric. and (2) Lamm, F. R., H. L. Manges, L. R. Stone, A. H. Khan, and D. H. Rogers. 1995. Water requirement of subsurface drip-irrigated corn in northwest Kansas. Trans. ASAE, 38(2):441-448.]. Moisture levels, irrigation levels, evapotranspiration, and plant health were measured throughout the growing season. Climatic variables were measured (air temperature, rainfall, solar and net radiation, relative humidity, rainfall, wind speed and direction) throughout the season.
Irrigation for the fully irrigated treatments was scheduled according to need by a climatic water budget using calculated evapotranspiration as a withdrawal and with rainfall and irrigation as deposits. Irrigation amounts for each event for the fully irrigated plots were generally 0.5 inches for each event. The deficit irrigation treatments were scheduled at approximately 50% of the fully irrigated plots (5.9 inches/acre vs. 13.55 inches of water/acre). Volumetric soil water content was measured in one-foot increments to a depth of 8 ft on an approximately weekly basis throughout the crop season to determine total water use. Crop water use was calculated as the sum of irrigation, precipitation and changes in soil water between the initial and final soil water sampling dates. Water productivity was calculated as the crop yield divided by the seasonal water use. Maintenance crop protection products were applied as needed to manage weeds and pests throughout the season for all treatments including the control. Moddus (trinexapac-ethyl) was foliar-applied (tractor mounted sprayer) twice at a rate of 250 gai/ha at approximately the V3+V7 stages of the corn. Azoxystrobin (Quadris) was applied twice via drip irrigation at a rate of 0.8 fl. oz/1000 linear ft (261 gai/ha) at approximately V6 & R1 stages of the corn. Crop yield from each replication was recorded after harvest and adjusted to 15% moisture content. Corn yield components of crop grain yield, plants/area, ears/plant, and kernel weight were measured by hand harvesting a representative sample (20 feet long for one crop row near the center of each subplot).

Test [2] relates to corn. The test can be described thus: SDI chemigation field study on grain yield under rainfed conditions, Examples 17-19. The following applies: for Yield: optimum nitrogen rate 200 lbs. N/acre. How it is done: A chemigation study using Subsurface Drip Irrigation (SDI) was conducted to quantify the impact of treatment effects on grain yield under rainfed conditions. The field study was set up as a randomized complete plot design (split plot) with three replications on silt loam soil. Each plot was 8 rows wide (6.1 meters) by 34 meters long. Soil water status was monitored on an hourly basis every 30 cm up to 1.2 meters throughout the growing season using soil moisture sensors. Corn seed was planted with a precision planter at a depth of 2 inches and rows spaced at 30 inches. The planting population was 30,000 seeds per acre. Testing parameters and harvesting were conducted according to the University of Nebraska experimental procedure (see, e.g.,: Irmak, S, D. Z. Haman, and R. Bastug. Determination of Crop Water Stress Index for irrigation Timing and Yield Estimation of Corn. 2000. Agronomy Journal. 92:1221-1227). Moisture levels, evapotranspiration, and plant health were measured throughout the growing season. All microclimatic variables were measured (air temperature, rainfall, solar and net radiation, relative humidity, rainfall, wind speed and direction) so that the researcher could quantify the range of the microclimatic conditions under which this research was conducted to define the boundaries of experimental conditions.
No irrigation was applied to rainfed plots. […] Maintenance crop protection products were applied as needed to manage weeds and pests throughout the season for all treatments including the control. Azoxystrobin (Quadris) was applied twice via drip irrigation at a rate of 0.8 fl. oz/1000 linear ft (261 gai/ha) or by foliar application (tractor mounted sprayer) at 14 fl. oz./acre (261 gai/ha) at approximately the V6 & R1 stages of the corn. Moddus (trinexapac-ethyl) was foliar-applied (tractor mounted sprayer) once at a rate of 250 gai/ha at approximately the V7 stage of the corn. Crop yield from each replication was recorded after harvest and adjusted to 15.5% moisture content.

Test [3] concerns corn. The test can be described thus: Greenhouse sub-surface chemigation, yield and root architecture under deficit water, Examples 20-23. As to conditions: for Yield (% difference from UTC) / Relative number of fine roots (% difference from UTC): sub-surface chemigation at V3/V4, maximum labeled rates, 50% plant-available water; for Relative number of fine roots (% difference from UTC): within 2 weeks of harvest; for Yield compared with the control, statistical statement: sub-surface chemigation, abiotic stress, P values <0.001 at the 95th percentile confidence interval. The text has this:
In this experiment, standardized growth conditions were applied across all corn treatments including: soil-water availability, soil texture and composition, soil chemical and physical properties, meteorological and environmental parameters, and plant nutrition in a greenhouse. No indication of plant disease or pest damage was observed over the course of the study and no pest management program was necessary. A homogeneous sand-organic matter soil mixture (0.18% organic matter) was used as the growth medium in 55-gal containers. These containers were used as a weighing lysimeter, where daily changes in system weight were used to calculate plant transpiration. Four corn plants were grown in each 55-gal container. Three 55-gal containers (12 plants total) made up each treatment. All irrigation and chemical treatments were applied via sub-surface irrigation. Chemical treatments consisted of: azoxystrobin (Quadris), paclobutrazol (Trimmit), trinexapac-ethyl (Moddus), and propiconazole (Tilt) at maximum labeled rates.
Corn plants were grown from seed and transplanted in the 55-gal drums approximately 14 days after planting. Uniform adequate irrigation was applied up to growth stage V3/V4 to ensure plant establishment. Chemical treatment applications were applied at growth stage V3/V4 via sub-surface chemigation. At stage V3/V4, irrigation was decreased to replicate deficit water conditions across all treatments for the remainder of the study period. Irrigation was managed daily to maintain 50% plant-available water. Visual signs of abiotic plant stress were observed approximately 30 days after chemical application. All corn plants were grown to yield and cobs were harvested when kernels were uniformly dry (15% moisture content). Root architecture, specifically relative number of fine roots, was measured at within 2 weeks of harvest using a digital imaging technique. Fine roots are related to water uptake productivity, which is directly tied to the ability of the plant to access soil-water under stress.

The mark [4] stands for this setting: 250 gai/ha, foliar applied once (V7), 0% irrigated.

Marks after values point to notes of the source that are not given here.

As to `CO/C=C(/C(=O)OC)c1ccccc1Oc1cc(Oc2ccccc2C#N)ncn1` [Azoxystrobin, azoxystrobin], in the test on corn [1] (261 gai/ha, SDI chemigated twice (V6 & R1)), the Yield is reported as 212^ Bu./acre. In the test with corn [1] (261 gai/ha, SDI chemigated), the “% Yield Increase by Product over Untr./50% irr.” value is given as “+16% Incr. over”, the “% increase in Water Productivity by Product over 50% irr.” value is given as “+18% Incr” and the “Water Prodctivity (IWUE)” value is on record as 426 pounds of corn per inch of water applied. For the same compound, the Yield in the test on corn [2] (261 gai/ha, SDI chemigated (V6 & R1), 0% irrigated dryland/rainfed) was 145.4 Bu./acre. Also, the “% Yield Increase by Product over Untr./0% irr.” value in the test on corn [2] (261 gai/ha, SDI chemigated, 0% irrigated dryland/rainfed) is “+7% incr over Untr./0% irr”. In the test on corn [2] (261 gai/ha, foliar applied (V6 & R1), 0% irrigated dryland/rainfed), this compound had a Yield of 151.1 Bu./acre. Besides, the “% Yield Increase by Product over Untr./0% irr.” value in the test on corn [2] (261 gai/ha, foliar applied, 0% irrigated dryland/rainfed) was “+11% incr over Untr./0% irr”. Further, in the test with corn [3], the “Yield (% difference from UTC)” value was 12.5† %; the “Relative number of fine roots (% difference from UTC)” value was 37.3† %; the “Yield compared with the control, statistical statement” value is given as “statistically different from the control”.
Take `CCOC(=O)C1CC(=O)C(=C(O)C2CC2)C(=O)C1` (stereo not shown) [TXP, trinexapac-ethyl]: the Yield in the test with corn [1] (250 gai/ha, foliar-applied twice (V3+V7)) came out at 235 Bu./acre. In addition, in the test on corn [1] (250 gai/ha, foliar-applied), the “% Yield Increase by Product over Untr./50% irr.” value is given as “+28% Incr. over” and the “Water Prodctivity (IWUE)” value is reported as 462 pounds of corn per inch of water applied. In the test with corn [2] (setting [4]), the “% Yield Increase by Product over Untr./0% irr.” value is recorded as “+4% incr over Untr./0% irr” and the Yield came out at 141.9 Bu./acre. In addition, in the test with corn [3], the “Yield (% difference from UTC)” value was 15.6† %; the “Relative number of fine roots (% difference from UTC)” value was 34.3† %; the “Yield compared with the control, statistical statement” value was “statistically different from the control”.
